Experimental data as given in patent publication US20110040086A1, “Novel Beta-Lactam Antibiotics, Methods for Their Production, and Their Use” (DRITTE PATENTPORTFOLIO BETEILIGUNGSGESELLSCHAFT MB, priority 2007, published 2011).

Legend:
[1] = system: S. aureus 520; assay: agar diffusion test (Test System II, multi-resistant germs); assay type: cell-based, Staphylococcus aureus; design: key: r = resistant (no detectable zone of inhibition)
In short: (§1)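 Each plate of Müller-Hinton agar II, inoculated with a saline suspension at McFarland 0.5, carried three discs loaded with 10, 50 and 100 μg of substance. Incubation was 18-20 h at 37 °C, with inhibition zones then measured.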

[2] = system: S. aureus North Germany strain; assay: as above; assay type: cell-based, Staphylococcus aureus; design: key: r = resistant (no detectable zone of inhibition)
In short: as §1

[3] = system: S. aureus 36881; assay: as above; assay type: cell-based, Staphylococcus aureus; design: key: r = resistant (no detectable zone of inhibition)
In short: as §1

[4] = system: S. aureus ATCC 6538; assay: as above; assay type: cell-based, Staphylococcus aureus
In short: as §1

[5] = system: S. aureus 38418; assay: as above; assay type: cell-based, Staphylococcus aureus
In short: as §1

[6] = system: Staphylococcus aureus ATCC 6538; assay: mouse infected with Staphylococcus aureus infection model (survival); assay type: in vivo, BALB/c mice; details: 2 × 1.0 mg (50 mg/kg) i.p.
Protocol: Method for Effectiveness In Vivo with the Mouse Infected with Staphylococcus aureus Model
On Day 0, at least 3 BALB/c mice per test substance (Table 8) or controls are pretreated with cyclophosphamide (250 mg/kg) in 250 μl PBS inta peritoneal (i.p.).
On Day 2, the animals again received 100 mg/kg i.p.
On Day 2, a colony of the test germ is transferred from a growing agar plate (Müller-Hinton-Agar, Beckton Dickinson) into a flask with 10 ml CASO broth (CASO-B., Soyabean peptone-Casein peptone broth, SIFIN, 30 g/l) and is cultivated overnight at 37° C. and a shaking frequency of 250 rpm.
On Day 3, the pre-culture (Vk) is diluted 1:50 with CASO-B and further cultivated ca. 2 hours until an extinction in the medium of 0.6 at a wavelength of 550 nm is reached. Then, it is grown 1× with PBS at room temperature and set again to an extinction of 0.6.
At least 3 animals for a test substance or controls are infected with 10 μl/g body weight grown germs of a bacteria suspension with the extinction 0.6 (ca. 10^10-10^12 CFU, Colony forming units) i.p.
After 30 minutes, antibiotic solution is injected into the mice in a volume of 200 μl PBS with 3% DMSO i.p. 6 hours later, the second antibiotic injection is performed at the same concentration. […]

[7] = system: S. epidermidis 125; assay: agar diffusion test (Test System II, multi-resistant germs); assay type: cell-based, Staphylococcus epidermidis
In short: as §1

[8] = system: Staphylococcus aureus 315; assay: as above; assay type: cell-based; design: key: r = resistant (no detectable zone of inhibition)
In short: as §1

[9] = system: Enterococcus faecalis 769; assay: as above; assay type: cell-based; design: key: r = resistant (no detectable zone of inhibition)
In short: as §1

[10] = system: S. epidermidis 847; assay: as above; assay type: cell-based, Staphylococcus epidermidis; design: key: r = resistant (no detectable zone of inhibition)
In short: as §1

[11] = logP value by HPLC according to Donovan et al.; details: for chromatographic logP: HPLC with methanol/0.1% phosphoric acid gradient, pH 2
Protocol: • Operating temperature 18-24° C. • Flow 1.5 mL/min • Linear gradient (methanol/0.1% phosphoric acid pH 2) from 10% to 100% methanol in 9.4 min, equilibrium time between 2 runs 6 min
ca. 0.5 mg of analyte is added to 0.5 ml of a standard solution (440 mg methyl phenyl sulfonate and 380 μl toluene in 150 mL methanol). 2 μl of this sample solution is injected.
Because the distribution coefficients of the two standards running in each test are known, the distribution coefficient of the analytes can be determined from the relationships of the analyte/standard retention times.

3-chlorine-7-[2-(2-carbamoyl-3,6-dioxocyclohexa-1,4-dienylamino)-2-phenyl-acetylamino]-8-oxo-5-aza-bicyclo[4.2.0]oct-3-ene-4-carboxylic acid [1n]
Diameter of zone of inhibition ([1]; Quantity n [mol] 0.019): r
Diameter of zone of inhibition ([1]; Quantity n [mol] 0.096): r
Diameter of zone of inhibition ([1]; Quantity n [mol] 0.19): 8 mm
Diameter of zone of inhibition ([2]; Quantity n 0.019): r
Diameter of zone of inhibition ([2]; Quantity n 0.096): r
Diameter of zone of inhibition ([2]; Quantity n 0.19): 14 mm
Diameter of zone of inhibition ([3]; Quantity n 0.019): r
Diameter of zone of inhibition ([3]; Quantity n 0.096): r
Diameter of zone of inhibition ([3]; Quantity n 0.19): 8 mm
Diameter of zone of inhibition ([4]; Quantity n 0.019): 22 mm
Diameter of zone of inhibition ([4]; Quantity n 0.096): 28 mm
Diameter of zone of inhibition ([4]; Quantity n 0.19): 32 mm
Diameter of zone of inhibition ([5]; Quantity n [mol] 0.019): 14 mm
Diameter of zone of inhibition ([5]; Quantity n [mol] 0.096): 26 mm
Diameter of zone of inhibition ([5]; Quantity n [mol] 0.19): 30 mm
Survival/tested mice n/n [6]: 3/3
Diameter of zone of inhibition ([7]; Quantity n 0.019): 14 mm
Diameter of zone of inhibition ([7]; Quantity n 0.096): 22 mm
Diameter of zone of inhibition ([7]; Quantity n 0.19): 26 mm
Diameter of zone of inhibition ([8]; Quantity n 0.019): r
Diameter of zone of inhibition ([8]; Quantity n 0.096): r
Diameter of zone of inhibition ([8]; Quantity n 0.19): 12 mm
Diameter of zone of inhibition ([9]; Quantity n 0.019): r
Diameter of zone of inhibition ([9]; Quantity n 0.096): r
Diameter of zone of inhibition ([9]; Quantity n 0.19): r
Diameter of zone of inhibition ([10]; Quantity n [mol] 0.019): r
Diameter of zone of inhibition ([10]; Quantity n [mol] 0.096): 16 mm
Diameter of zone of inhibition ([10]; Quantity n [mol] 0.19): 20 mm

NC(=O)c1cc(O)ccc1O [2,5-dihydroxybenzamide]
chromatographic logP [11]: -0.4

CCOC(=O)C1=C(NC(C(=O)NC2C(=O)C3CC(Cl)=C(C(=O)O)NC32)c2ccccc2)C(=O)C=CC1=O (stereo not drawn) [1p, 3-chlorine-7-[2-(2-ethoxycarbonyl-3,6-dioxocyclohexa-1,4-dienylamino)-2-phenyl-acetylamino]-8-oxo-5-azabicyclo[4.2.0]oct-3-ene-4-carboxylic acid]
Diameter of zone of inhibition ([1]; Quantity n [mol] 0.019): r
Diameter of zone of inhibition ([1]; Quantity n [mol] 0.094): r
Diameter of zone of inhibition ([1]; Quantity n [mol] 0.19): 8 mm
Diameter of zone of inhibition ([2]; Quantity n 0.019): r
Diameter of zone of inhibition ([2]; Quantity n 0.094): r
Diameter of zone of inhibition ([2]; Quantity n 0.19): 12 mm
Diameter of zone of inhibition ([3]; Quantity n 0.019): r
Diameter of zone of inhibition ([3]; Quantity n 0.094): 12 mm
Diameter of zone of inhibition ([3]; Quantity n 0.19): 20 mm
Diameter of zone of inhibition ([4]; Quantity n 0.019): 22 mm
Diameter of zone of inhibition ([4]; Quantity n 0.094): 30 mm
Diameter of zone of inhibition ([4]; Quantity n 0.19): 32 mm
Diameter of zone of inhibition ([5]; Quantity n [mol] 0.019): 18 mm
Diameter of zone of inhibition ([5]; Quantity n [mol] 0.094): 28 mm
Diameter of zone of inhibition ([5]; Quantity n [mol] 0.19): >30 mm
Survival/tested mice n/n [6]: 2/3
Diameter of zone of inhibition ([7]; Quantity n 0.019): 16 mm
Diameter of zone of inhibition ([7]; Quantity n 0.094): 26 mm
Diameter of zone of inhibition ([7]; Quantity n 0.19): 28 mm
Diameter of zone of inhibition ([8]; Quantity n 0.019): r
Diameter of zone of inhibition ([8]; Quantity n 0.094): r
Diameter of zone of inhibition ([8]; Quantity n 0.19): 10 mm
Diameter of zone of inhibition ([9]; Quantity n 0.019): r
Diameter of zone of inhibition ([9]; Quantity n 0.094): r
Diameter of zone of inhibition ([9]; Quantity n 0.19): r
Diameter of zone of inhibition ([10]; Quantity n [mol] 0.019): r
Diameter of zone of inhibition ([10]; Quantity n [mol] 0.094): 16 mm
Diameter of zone of inhibition ([10]; Quantity n [mol] 0.19): 20 mm

N[C@@H](C(=O)N[C@@H]1C(=O)N2C(C(=O)O)=C(Cl)CC[C@H]12)c1ccccc1 [2d, Loracarbef, reference compound]
logP value ([11]; HPLC, methanol/0.1% phosphoric acid pH 2): −3.13

O=C(NCCO)c1cc(O)ccc1O [2,5-dihydroxy-N-(2-hydroxyethyl)benzamide]
chromatographic logP [11]: -1.21

CCOC(=O)c1cc(O)ccc1O [2,5-dihydroxybenzoic acid ethylester]
chromatographic logP [11]: 2.65
